Measured values taken from ChEMBL document CHEMBL5715260, “Selectivity Literature for EUbOPEN Chemogenomic Library” (2024).
Where a SMILES comes first, the peptide text is derived from it. [ ]: non-standard residue; d: D form. The star is where a group is joined. Benzoyl(4-tBu) = CC(C)(C)c1ccc(C(=O)*)cc1; Lys(Et2) = CCN(CC)CCCC[C@H](N)C(=O)O

Legend:
[1] = target: T1, Retinoic acid receptor RXR-alpha (Homo sapiens) (UniProt P19793); assay: Selectivity interaction (Reporter gene assay) EUB0000082b RXRA; set-up: recommended concentration 3 uM; conditions: reference bexarotene 1 uM, Selectivity number of off-targets 0.0, Selectivity number of targets 1.0, Source Knowledge inhouse
T1 sequence (whole entry): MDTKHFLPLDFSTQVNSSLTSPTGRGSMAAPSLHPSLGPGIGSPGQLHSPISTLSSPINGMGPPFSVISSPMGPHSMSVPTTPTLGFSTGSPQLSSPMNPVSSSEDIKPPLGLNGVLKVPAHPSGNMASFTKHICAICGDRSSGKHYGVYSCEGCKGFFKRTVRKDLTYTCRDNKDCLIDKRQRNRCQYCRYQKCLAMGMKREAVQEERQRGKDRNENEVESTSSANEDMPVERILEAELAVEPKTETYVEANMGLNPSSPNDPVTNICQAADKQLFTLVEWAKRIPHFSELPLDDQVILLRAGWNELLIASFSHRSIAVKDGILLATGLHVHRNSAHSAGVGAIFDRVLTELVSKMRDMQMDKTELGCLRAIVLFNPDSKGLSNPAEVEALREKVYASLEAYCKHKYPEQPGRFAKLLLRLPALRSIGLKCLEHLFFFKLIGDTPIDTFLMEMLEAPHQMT

[2] = target: Nuclear receptor subfamily 4immunitygroup A member 1 (Homo sapiens) (UniProt P22736); assay: Selectivity interaction (Reporter gene assay) EUB0000082b NR4A1; set-up: recommended concentration 3 uM
[3] = target: T2, Alpha trans-inducing protein (Human alphaherpesvirus 1) (UniProt A0A5J6DW59); assay: Selectivity interaction (Reporter gene assay) EUB0000082b UL48; set-up: recommended concentration 3 uM
[4] = target: NR1I2 (nuclear receptor subfamily 1 group I member 2, PXR) (Homo sapiens, UniProt O75469); assay: Selectivity interaction (Reporter gene assay) EUB0000082b NR1I2; set-up: recommended concentration 3 uM; conditions: read-out: Fold activation
[5] = target: Nuclear receptor subfamily 2 group E member 1 (Homo sapiens) (UniProt Q9Y466); assay: Selectivity interaction (Reporter gene assay) EUB0000082b NR2E1; set-up: recommended concentration 3 uM; conditions: screened at recom. conc., Selectivity number of off-targets 2.0, Selectivity number of targets 5.0, Source Knowledge inhouse
[6] = target: T3, Nuclear receptor subfamily 2 group C member 1 (Homo sapiens) (UniProt P13056); assay: Selectivity interaction (Reporter gene assay) EUB0000082b NR2C1; set-up: recommended concentration 3 uM
T3 sequence (whole entry): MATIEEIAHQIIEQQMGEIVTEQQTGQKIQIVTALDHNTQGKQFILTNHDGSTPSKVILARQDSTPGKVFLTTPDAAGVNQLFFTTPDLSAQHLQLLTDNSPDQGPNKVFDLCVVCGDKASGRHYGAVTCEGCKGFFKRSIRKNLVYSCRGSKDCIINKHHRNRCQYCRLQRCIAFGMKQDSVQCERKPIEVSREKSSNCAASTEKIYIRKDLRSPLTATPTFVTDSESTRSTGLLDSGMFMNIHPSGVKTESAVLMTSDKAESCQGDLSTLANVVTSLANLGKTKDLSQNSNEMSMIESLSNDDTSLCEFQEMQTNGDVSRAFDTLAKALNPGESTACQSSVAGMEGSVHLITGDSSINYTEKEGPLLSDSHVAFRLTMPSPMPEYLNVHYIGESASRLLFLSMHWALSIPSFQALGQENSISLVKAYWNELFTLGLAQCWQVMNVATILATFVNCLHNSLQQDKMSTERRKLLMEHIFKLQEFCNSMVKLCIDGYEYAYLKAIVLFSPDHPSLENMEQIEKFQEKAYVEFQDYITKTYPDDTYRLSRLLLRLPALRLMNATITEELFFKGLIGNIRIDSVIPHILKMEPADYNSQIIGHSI

[7] = target: T4, Hepatocyte nuclear factor 4-alpha (Homo sapiens) (UniProt P41235); assay: Selectivity interaction (Reporter gene assay) EUB0000082b HNF4A; set-up: recommended concentration 3 uM
T4 sequence (whole entry): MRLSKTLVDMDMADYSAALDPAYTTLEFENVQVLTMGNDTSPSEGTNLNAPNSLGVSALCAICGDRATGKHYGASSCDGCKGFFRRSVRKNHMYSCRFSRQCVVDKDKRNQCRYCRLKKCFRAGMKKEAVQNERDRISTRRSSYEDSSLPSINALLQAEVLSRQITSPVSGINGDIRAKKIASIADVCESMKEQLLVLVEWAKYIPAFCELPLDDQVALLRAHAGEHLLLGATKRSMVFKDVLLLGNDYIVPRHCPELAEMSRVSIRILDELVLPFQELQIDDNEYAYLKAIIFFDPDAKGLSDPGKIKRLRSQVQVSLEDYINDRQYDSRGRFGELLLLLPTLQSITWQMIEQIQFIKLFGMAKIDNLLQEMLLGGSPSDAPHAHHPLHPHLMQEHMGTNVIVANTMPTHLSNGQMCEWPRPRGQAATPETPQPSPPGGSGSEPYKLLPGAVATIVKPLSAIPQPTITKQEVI

[8] = target: Steroidogenic factor 1 (Homo sapiens) (UniProt Q13285); assay: Selectivity interaction (Reporter gene assay) EUB0000082b NR5A1; set-up: recommended concentration 3 uM
[9] = target: Substance-K receptor (Homo sapiens) (UniProt P21452); assay: Selectivity interaction (NIMH PDSP panel) EUB0002346a TACR2; set-up: recommended concentration 1 uM; conditions: at 10 µM
[10] = target: T5, Kappa-type opioid receptor (Homo sapiens, UniProt P41145); assay: Selectivity interaction (CEREP panel) EUB0002346a OPRK1; set-up: recommended concentration 1 uM; conditions: at 10 µM
[11] = target: Substance-K receptor (Homo sapiens) (UniProt P21452); assay: Selectivity interaction (CEREP panel) EUB0002346a TACR2; set-up: recommended concentration 1 uM; conditions: at 10 µM
Mu-type opioid receptor [12] = target: T6, Mu-type opioid receptor (Homo sapiens, UniProt P35372); assay: Selectivity interaction (NIMH PDSP panel) EUB0002346a OPRM1; set-up: recommended concentration 1 uM; conditions: at 10 µM
[13] = target: Substance-P receptor (Homo sapiens) (UniProt P25103); assay: Selectivity interaction (NIMH PDSP panel) EUB0002346a TACR1; set-up: recommended concentration 1 uM; conditions: at 10 µM
Mu-type opioid receptor [14] = target: T6, Mu-type opioid receptor; assay: Selectivity interaction (CEREP panel) EUB0002346a OPRM1; set-up: recommended concentration 1 uM; conditions: at 10 µM
[15] = target: T5, Kappa-type opioid receptor; assay: Selectivity interaction (NIMH PDSP panel) EUB0002346a OPRK1; set-up: recommended concentration 1 uM; conditions: at 10 µM
[16] = target: Vasopressin V1b receptor (Homo sapiens) (UniProt P47901); assay: Selectivity interaction (NIMH PDSP panel) EUB0002346a AVPR1B; set-up: recommended concentration 1 uM; conditions: at 10 µM
[17] = target: Vasopressin V2 receptor (Homo sapiens) (UniProt P30518); assay: Selectivity interaction (NIMH PDSP panel) EUB0002346a AVPR2; set-up: recommended concentration 1 uM; conditions: at 10 µM
[18] = target: Vasopressin V1a receptor (Homo sapiens) (UniProt P37288); assay: Selectivity interaction (CEREP panel) EUB0002346a AVPR1A; set-up: recommended concentration 1 uM; conditions: at 10 µM
[19] = target: Vasopressin V1a receptor (Homo sapiens) (UniProt P37288); assay: Selectivity interaction (NIMH PDSP panel) EUB0002346a AVPR1A; set-up: recommended concentration 1 uM; conditions: at 10 µM
[20] = target: Delta-type opioid receptor (Homo sapiens, UniProt P41143); assay: Selectivity interaction (NIMH PDSP panel) EUB0002346a OPRD1; set-up: recommended concentration 1 uM; conditions: at 10 µM
[21] = target: T7, Bromodomain-containing protein 9 (Homo sapiens, UniProt Q9H8M2); assay: (§1) Selectivity interaction (Bromodomain panel) EUB0000233b BRD9; set-up: recommended concentration 1 uM
T7 sequence (Q9H8M2 whole entry): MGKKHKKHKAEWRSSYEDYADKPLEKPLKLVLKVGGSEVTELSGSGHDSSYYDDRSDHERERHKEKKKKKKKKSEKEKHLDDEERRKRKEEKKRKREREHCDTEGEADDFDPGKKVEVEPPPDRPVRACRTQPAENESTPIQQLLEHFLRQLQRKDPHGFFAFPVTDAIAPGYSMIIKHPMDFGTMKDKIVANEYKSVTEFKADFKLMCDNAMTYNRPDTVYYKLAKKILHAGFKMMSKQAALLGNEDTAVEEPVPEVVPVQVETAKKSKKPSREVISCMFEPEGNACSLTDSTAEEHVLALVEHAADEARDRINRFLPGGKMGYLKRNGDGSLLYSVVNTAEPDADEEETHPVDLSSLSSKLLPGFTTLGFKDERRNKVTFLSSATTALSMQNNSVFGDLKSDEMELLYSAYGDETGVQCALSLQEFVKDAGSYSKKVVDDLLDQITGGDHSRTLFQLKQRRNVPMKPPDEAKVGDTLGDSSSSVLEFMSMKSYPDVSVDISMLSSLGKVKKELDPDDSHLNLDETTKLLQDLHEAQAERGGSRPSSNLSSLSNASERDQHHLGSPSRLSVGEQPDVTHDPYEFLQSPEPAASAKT

[22] = target: T7, Bromodomain-containing protein 9; assay: as §1; set-up: recommended concentration 1 uM; remark: listed apart in the source
[23] = target: T7, Bromodomain-containing protein 9; assay: as §1; set-up: recommended concentration 1 uM; remark: listed apart in the source
[24] = target: cGMP-specific 3',5'-cyclic phosphodiesterase (Homo sapiens) (UniProt O76074); assay: Selectivity interaction (Enzymatic assay) EUB0002694a PDE5A; set-up: recommended concentration 1 uM; conditions: at 10 µM
[25] = target: cAMP and cAMP-inhibited cGMP 3',5'-cyclic phosphodiesterase 10A (Homo sapiens) (UniProt Q9Y233); assay: Selectivity interaction (Enzymatic assay) EUB0002694a PDE10A; set-up: recommended concentration 1 uM; conditions: at 10 µM
[26] = target: Nuclear receptor subfamily 4immunitygroup A member 1 (Homo sapiens) (UniProt P22736); assay: Selectivity interaction (Reporter gene assay) EUB0002355a NR4A1; set-up: recommended concentration 3 uM
[27] = target: T4, Hepatocyte nuclear factor 4-alpha (Homo sapiens); assay: Selectivity interaction (Reporter gene assay) EUB0002355a HNF4A; set-up: recommended concentration 3 uM
[28] = target: T1, Retinoic acid receptor RXR-alpha (Homo sapiens); assay: Selectivity interaction (Reporter gene assay) EUB0002355a RXRA; set-up: recommended concentration 3 uM; conditions: reference bexarotene 1 uM, Selectivity number of off-targets 0.0, Selectivity number of targets 1.0, Source Knowledge inhouse
[29] = target: Steroidogenic factor 1 (Homo sapiens) (UniProt Q13285); assay: Selectivity interaction (Reporter gene assay) EUB0002355a NR5A1; set-up: recommended concentration 3 uM
[30] = target: T3, Nuclear receptor subfamily 2 group C member 1 (Homo sapiens); assay: Selectivity interaction (Reporter gene assay) EUB0002355a NR2C1; set-up: recommended concentration 3 uM
[31] = target: T2, Alpha trans-inducing protein (Human alphaherpesvirus 1); assay: Selectivity interaction (Reporter gene assay) EUB0002355a UL48; set-up: recommended concentration 3 uM
[32] = target: Nuclear receptor subfamily 2 group E member 1 (Homo sapiens) (UniProt Q9Y466); assay: Selectivity interaction (Reporter gene assay) EUB0002355a NR2E1; set-up: recommended concentration 3 uM

T5 sequence (P41145 whole entry): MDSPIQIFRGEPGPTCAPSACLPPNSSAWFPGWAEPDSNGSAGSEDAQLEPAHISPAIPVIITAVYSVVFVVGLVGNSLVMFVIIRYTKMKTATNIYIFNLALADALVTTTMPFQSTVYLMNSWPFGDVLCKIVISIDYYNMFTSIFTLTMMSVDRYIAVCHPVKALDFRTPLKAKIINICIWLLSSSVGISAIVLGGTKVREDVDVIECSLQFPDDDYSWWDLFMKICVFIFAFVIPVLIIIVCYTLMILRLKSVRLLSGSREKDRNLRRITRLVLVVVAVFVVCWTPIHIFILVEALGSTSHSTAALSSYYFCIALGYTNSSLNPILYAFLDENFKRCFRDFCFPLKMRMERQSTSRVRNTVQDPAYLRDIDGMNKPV
Chain of Steroidogenic factor 1 (Homo sapiens) (Q13285 whole entry): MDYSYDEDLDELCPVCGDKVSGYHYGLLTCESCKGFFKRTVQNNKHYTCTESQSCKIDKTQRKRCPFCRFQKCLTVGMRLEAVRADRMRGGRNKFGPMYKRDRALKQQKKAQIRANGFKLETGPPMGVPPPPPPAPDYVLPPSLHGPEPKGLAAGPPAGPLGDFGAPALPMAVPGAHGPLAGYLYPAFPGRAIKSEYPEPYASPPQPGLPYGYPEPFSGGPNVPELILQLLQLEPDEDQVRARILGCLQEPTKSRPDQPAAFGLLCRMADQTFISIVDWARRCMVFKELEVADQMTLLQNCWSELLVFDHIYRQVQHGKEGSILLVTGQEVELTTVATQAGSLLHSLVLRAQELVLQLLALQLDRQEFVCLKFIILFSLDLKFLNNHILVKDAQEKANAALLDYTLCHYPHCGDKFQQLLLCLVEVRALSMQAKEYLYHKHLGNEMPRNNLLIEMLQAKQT
Chain of Substance-K receptor (Homo sapiens) (P21452 whole entry): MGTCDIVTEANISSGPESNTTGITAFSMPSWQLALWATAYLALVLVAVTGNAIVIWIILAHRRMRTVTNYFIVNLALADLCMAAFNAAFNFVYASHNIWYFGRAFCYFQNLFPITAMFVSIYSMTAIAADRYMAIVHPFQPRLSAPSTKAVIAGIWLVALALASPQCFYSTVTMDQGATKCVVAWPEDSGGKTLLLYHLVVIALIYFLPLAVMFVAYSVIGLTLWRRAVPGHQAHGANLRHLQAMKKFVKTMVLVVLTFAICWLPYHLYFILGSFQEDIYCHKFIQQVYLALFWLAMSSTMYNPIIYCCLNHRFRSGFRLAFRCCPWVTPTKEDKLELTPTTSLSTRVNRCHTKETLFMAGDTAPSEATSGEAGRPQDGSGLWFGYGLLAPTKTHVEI
T6 sequence (P35372 whole entry): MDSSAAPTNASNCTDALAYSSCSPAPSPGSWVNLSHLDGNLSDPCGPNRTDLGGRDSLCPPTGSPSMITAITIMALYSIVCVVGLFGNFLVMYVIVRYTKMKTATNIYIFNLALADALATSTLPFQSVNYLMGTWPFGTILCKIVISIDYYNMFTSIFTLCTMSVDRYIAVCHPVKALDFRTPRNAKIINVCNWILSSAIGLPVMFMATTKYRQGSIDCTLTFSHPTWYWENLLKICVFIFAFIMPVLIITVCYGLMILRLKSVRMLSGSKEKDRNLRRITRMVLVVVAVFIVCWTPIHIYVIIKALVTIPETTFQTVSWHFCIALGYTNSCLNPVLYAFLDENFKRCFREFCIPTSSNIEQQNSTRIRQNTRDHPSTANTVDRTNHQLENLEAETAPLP
Chain of Nuclear receptor subfamily 2 group E member 1 (Homo sapiens) (Q9Y466 whole entry): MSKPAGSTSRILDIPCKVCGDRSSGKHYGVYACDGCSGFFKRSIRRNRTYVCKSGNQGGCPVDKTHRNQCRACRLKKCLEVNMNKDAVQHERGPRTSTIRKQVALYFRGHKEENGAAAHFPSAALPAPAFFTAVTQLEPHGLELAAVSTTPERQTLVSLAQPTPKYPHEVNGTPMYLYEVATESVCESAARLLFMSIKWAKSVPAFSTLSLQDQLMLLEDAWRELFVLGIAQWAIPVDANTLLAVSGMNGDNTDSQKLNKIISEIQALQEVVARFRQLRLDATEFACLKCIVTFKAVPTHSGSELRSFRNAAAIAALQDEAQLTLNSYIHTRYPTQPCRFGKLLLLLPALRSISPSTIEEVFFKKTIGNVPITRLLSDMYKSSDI
Chain of Nuclear receptor subfamily 4immunitygroup A member 1 (Homo sapiens) (P22736 whole entry): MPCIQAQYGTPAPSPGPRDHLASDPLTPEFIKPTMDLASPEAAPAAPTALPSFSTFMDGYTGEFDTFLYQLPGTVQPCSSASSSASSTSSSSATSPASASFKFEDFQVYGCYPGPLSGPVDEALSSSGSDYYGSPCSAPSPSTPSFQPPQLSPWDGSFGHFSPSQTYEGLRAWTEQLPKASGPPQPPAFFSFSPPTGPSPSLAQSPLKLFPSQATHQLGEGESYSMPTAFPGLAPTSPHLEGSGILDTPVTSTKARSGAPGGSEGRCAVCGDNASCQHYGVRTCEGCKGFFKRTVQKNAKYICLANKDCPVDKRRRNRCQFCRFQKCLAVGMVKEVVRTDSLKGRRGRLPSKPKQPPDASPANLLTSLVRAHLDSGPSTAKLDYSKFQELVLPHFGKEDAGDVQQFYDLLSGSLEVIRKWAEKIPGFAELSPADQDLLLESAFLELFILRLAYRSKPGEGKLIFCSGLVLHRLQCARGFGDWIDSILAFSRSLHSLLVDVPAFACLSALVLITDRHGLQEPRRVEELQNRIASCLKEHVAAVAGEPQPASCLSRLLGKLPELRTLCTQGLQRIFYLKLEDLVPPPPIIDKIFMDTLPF
T2 sequence (A0A5J6DW59 as listed by the source): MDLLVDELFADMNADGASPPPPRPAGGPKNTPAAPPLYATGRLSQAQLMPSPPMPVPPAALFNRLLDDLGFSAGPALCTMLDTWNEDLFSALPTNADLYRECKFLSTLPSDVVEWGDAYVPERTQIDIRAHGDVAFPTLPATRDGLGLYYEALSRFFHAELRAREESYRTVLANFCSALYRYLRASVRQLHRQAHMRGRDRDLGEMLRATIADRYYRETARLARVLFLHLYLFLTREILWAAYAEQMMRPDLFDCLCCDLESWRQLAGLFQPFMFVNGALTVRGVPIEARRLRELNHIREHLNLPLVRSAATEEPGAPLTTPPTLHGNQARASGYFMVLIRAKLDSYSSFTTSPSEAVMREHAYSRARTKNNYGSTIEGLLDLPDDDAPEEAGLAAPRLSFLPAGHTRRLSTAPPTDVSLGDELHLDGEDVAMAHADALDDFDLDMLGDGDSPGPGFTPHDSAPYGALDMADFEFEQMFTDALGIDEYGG
Chain of Vasopressin V1a receptor (Homo sapiens) (P37288 whole entry, looked up): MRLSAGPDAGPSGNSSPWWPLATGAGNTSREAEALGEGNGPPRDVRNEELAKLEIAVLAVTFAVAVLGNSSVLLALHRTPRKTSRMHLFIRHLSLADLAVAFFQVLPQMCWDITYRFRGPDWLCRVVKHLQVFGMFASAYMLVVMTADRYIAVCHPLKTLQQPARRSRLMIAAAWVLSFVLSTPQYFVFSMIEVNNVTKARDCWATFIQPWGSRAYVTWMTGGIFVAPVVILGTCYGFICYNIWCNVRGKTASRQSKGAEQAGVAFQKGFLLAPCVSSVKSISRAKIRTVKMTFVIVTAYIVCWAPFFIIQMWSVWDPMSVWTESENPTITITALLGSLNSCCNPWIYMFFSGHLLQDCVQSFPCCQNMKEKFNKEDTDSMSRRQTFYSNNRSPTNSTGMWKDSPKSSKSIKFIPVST
Chain of Substance-P receptor (Homo sapiens) (P25103 whole entry): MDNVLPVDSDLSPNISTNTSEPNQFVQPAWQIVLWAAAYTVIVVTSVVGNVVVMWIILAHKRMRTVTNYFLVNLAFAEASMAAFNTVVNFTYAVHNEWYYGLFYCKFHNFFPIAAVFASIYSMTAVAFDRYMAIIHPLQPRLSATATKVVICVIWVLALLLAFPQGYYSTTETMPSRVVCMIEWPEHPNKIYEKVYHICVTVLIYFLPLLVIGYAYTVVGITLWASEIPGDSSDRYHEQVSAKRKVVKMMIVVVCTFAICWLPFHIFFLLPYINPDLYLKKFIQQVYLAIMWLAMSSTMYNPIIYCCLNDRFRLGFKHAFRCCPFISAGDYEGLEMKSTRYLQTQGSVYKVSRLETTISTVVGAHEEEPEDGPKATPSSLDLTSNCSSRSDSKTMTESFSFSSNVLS
Chain of Vasopressin V1b receptor (Homo sapiens) (P47901 whole entry): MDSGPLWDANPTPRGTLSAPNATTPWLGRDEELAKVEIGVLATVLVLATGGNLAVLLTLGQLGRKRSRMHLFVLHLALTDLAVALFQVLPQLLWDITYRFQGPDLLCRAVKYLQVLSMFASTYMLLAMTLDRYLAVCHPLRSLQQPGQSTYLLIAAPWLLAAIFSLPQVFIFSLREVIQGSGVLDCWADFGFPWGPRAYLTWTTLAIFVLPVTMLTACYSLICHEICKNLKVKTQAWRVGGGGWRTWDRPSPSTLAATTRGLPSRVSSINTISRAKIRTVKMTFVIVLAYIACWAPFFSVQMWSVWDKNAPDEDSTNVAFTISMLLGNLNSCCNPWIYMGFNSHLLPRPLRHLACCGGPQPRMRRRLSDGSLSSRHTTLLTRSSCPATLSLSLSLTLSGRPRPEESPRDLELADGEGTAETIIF
Chain of Vasopressin V2 receptor (Homo sapiens) (P30518 whole entry): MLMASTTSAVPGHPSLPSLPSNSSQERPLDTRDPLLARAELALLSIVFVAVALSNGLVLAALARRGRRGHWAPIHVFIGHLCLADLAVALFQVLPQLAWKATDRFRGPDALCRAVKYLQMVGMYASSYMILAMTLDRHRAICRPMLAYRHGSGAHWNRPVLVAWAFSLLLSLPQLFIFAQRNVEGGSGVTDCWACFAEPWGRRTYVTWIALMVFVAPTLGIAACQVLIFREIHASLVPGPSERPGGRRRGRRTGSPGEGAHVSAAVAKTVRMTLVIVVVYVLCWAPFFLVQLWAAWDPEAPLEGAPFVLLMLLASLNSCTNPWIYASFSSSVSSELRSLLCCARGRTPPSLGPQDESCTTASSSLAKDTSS

With Fc1ccc(-c2c3cccc(C(F)(F)F)c3nn2Cc2ccc(F)cc2Cl)cc1 [LXR-623] the Relative activation [1] was 0.523%, the Fold activation [2] was 1.28 and the P-value [3] was 4.11e-06. For the same compound, the fold induction [4] was 2.24, the Fold activation [5] was 1.84 and the Fold activation [6] was 1.63. It also gave a Fold activation [7] of 0.867 and a Remaining activity [8] of 0.876.

CCN(CC)CCCC[C@H](NC(=O)[C@H](CC(C)C)NC(=O)[C@H](C)NC(=O)[C@H](Cc1ccccc1)NC(=O)c1ccc(C(C)(C)C)cc1)C(=O)N[C@@H](CO)C(=O)OC ({Benzoyl(4-tBu)}-FAL[Lys(Et2)]S-OMe) gave an Inhibition of control [9] of over 50%, an Inhibition of control [10] of 91% and an Inhibition of control [11] of 75%. The Inhibition of control (Mu-type opioid receptor [12]) was over 50%, the Inhibition of control [13] was over 50% and the Inhibition of control (Mu-type opioid receptor [14]) was 51%. The Inhibition of control [15] was over 50%, the Inhibition of control [16] was over 50% and the Inhibition of control [17] was over 50%. The Inhibition of control [18] was 85%, the Inhibition of control [19] was over 50% and the Inhibition of control [20] was over 50%.

In the case of CN(C)CCCOc1ccc(-c2cc(NCCCn3cccn3)nc(S(C)(=O)=O)n2)cc1, the IC50 [21] is reported as 1400 nM, the IC50 [22] is reported as 1400 nM and the IC50 [23] is reported as 1400 nM.

For N#Cc1ccc(-c2c3n(c4cccnc24)CCN(C2CC2)C3=O)cc1F, the inhibition [24] was 61.8% and the inhibition [25] was 82.1%.

With Cc1oc2ccccc2c1Cc1cc(I)c(OCC(=O)O)c(I)c1 the Fold activation [26] was 1.02, the Remaining activity [27] was 0.739 and the Relative activation [28] was 0.91%. It also gave a Remaining activity [29] of 0.684, a Fold activation [30] of 1.28 and a P-value [31] of 0.0128. For the same compound, the Remaining activity [32] was 0.732.
